# Assay results taken from patent US20240246964A1 (Arbutus Biopharma Corporation, priority 2021, published 2024).
# Biological target: human PD-L1 (Homo sapiens (Human), UniProt Q9NZQ7)
# Experiment: T cell activation luciferase reporter cell culture system (T Cell Activation Assay)
# Format: cell-based
# Details: luciferase reporter assay; PD-L1 aAPC/CHO-K1 cells with PD-1 effector Jurkat T cells
# Chain of human PD-L1 (Q9NZQ7 19-290): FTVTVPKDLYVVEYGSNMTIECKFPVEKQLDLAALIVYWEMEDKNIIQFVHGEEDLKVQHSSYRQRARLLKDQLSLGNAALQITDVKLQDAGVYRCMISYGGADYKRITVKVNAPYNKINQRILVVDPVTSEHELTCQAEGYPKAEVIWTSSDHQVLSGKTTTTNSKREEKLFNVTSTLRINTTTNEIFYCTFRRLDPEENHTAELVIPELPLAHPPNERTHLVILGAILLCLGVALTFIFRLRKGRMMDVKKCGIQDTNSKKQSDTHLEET
row,SMILES,EC50 [nM]
1,"COc1nc(-c2cccc(-c3ccnc(-c4cc(OC)c5nc(CN[C@H]6C[C@](C)(O)C6)nn5c4)c3Cl)c2Cl)ccc1CNC[C@@H]1CCC(=O)N1 [Example 370, (S)-5-((((6-(2-Chloro-3-(3-chloro-2-(2-((((1r,3r)-3-hydroxy-3-methylcyclobutyl)amino)methyl)-8-methoxy-[1,2,4]triazolo[1,5-a]pyridin-6-yl)pyridin-4-yl)phenyl)-2-methoxypyridin-3-yl)methyl)amino)methyl)pyrrolidin-2-one]",41.2
2,"COc1cc(-c2nccc(-c3cccc(-c4ccc(CN(C)C)c(OC)n4)c3Cl)c2Cl)ccc1CN(C)C [Cmpd 137, 1-(6-(2-chloro-3-(3-chloro-2-(4-((dimethylamino)methyl)-3-methoxyphenyl)pyridin-4-yl)phenyl)-2-methoxypyridin-3-yl)-N,N-dimethylmethanamine]",84.3
3,"COc1cc(-c2ncnc(-c3cccc(-c4ccc(CN5CCN(C(C)=O)CC5)c(OC)n4)c3Cl)c2Cl)ccc1CN1CCN(C(C)=O)CC1 [Example 562, 1-(4-((6-(3-(6-(4-((4-acetylpiperazin-1-yl)methyl)-3-methoxyphenyl)-5-chloropyrimidin-4-yl)-2-chlorophenyl)-2-methoxypyridin-3-yl)methyl)piperazin-1-yl)ethan-1-one]",≥ 10000
4,"COc1nc(-c2ccnc(-c3cccc4c3CCC[C@@H]4Nc3nc(OC)c(CNC[C@@H]4CCC(=O)N4)cc3C(F)(F)F)c2Cl)ccc1CNC[C@@H]1CCC(=O)N1 [Example 709, (S)-5-((((3′-Chloro-6-methoxy-2′-((S)-5-((6-methoxy-5-(((((S)-5-oxopyrrolidin-2-yl)methyl)amino)methyl)-3-(trifluoromethyl)pyridin-2-yl)amino)-5,6,7,8-tetrahydronaphthalen-1-yl)-[2,4′-bipyridin]-5-yl)methyl)amino)methyl)pyrrolidin-2-one]",≥ 10000
5,"COc1cc(-c2ccnc(-c3cccc(-c4ccc(CN5CC6(CNC(=O)C6)C5)c(OC)n4)c3Cl)c2Cl)ccc1CN1CC2(CNC(=O)C2)C1 [Example 622, 2-(4-(3-Chloro-2-(2-chloro-3-(6-methoxy-5-((7-oxo-2,6-diazaspiro[3.4]octan-2-yl)methyl)pyridin-2-yl)phenyl)pyridin-4-yl)-2-methoxybenzyl)-2,6-diazaspiro[3.4]octan-7-one]",216
6,"COc1cc(-c2nccc(-c3cccc(-c4ccc(CN5CCC(NC(C)=O)CC5)c(OC)n4)c3Cl)c2Cl)ccc1CNC1CCOCC1 [Example 432, N-(1-((6-(2-Chloro-3-(3-chloro-2-(3-methoxy-4-(((tetrahydro-2H-pyran-4-yl)amino)methyl)phenyl)pyridin-4-yl)phenyl)-2-methoxypyridin-3-yl)methyl)piperidin-4-yl)acetamide]",52.1
7,"COc1cc(-c2nccc(-c3cccc(-c4ccc(CNC5CCN(C(C)=O)CC5)c(OC)n4)c3Cl)c2Cl)ccc1CNC[C@H]1CNC(=O)C1 [Example 407, (S)-4-(((4-(4-(3-(5-(((1-Acetylpiperidin-4-yl)amino)methyl)-6-methoxypyridin-2-yl)-2-chlorophenyl)-3-chloropyridin-2-yl)-2-methoxybenzyl)amino)methyl)pyrrolidin-2-one]",20
8,COc1cc(-c2nccc(-c3cccc(-c4ccc(CNC[C@@H]5CCC(=O)N5)c(OC)n4)c3Cl)c2Cl)cc(F)c1CN[C@H]1C[C@](C)(O)C1 [Cmpd 79],50.6
9,"CCOc1cc(-c2nccc(-c3cccc(-c4ccc(CNC5CCN(C(C)=O)CC5)c(OC)n4)c3Cl)c2Cl)cn2nc(CN3CC4(CNC(=O)C4)C3)nc12 [Example 586, 2-((6-(4-(3-(5-(((1-Acetylpiperidin-4-yl)amino)methyl)-6-methoxypyridin-2-yl)-2-chlorophenyl)-3-chloropyridin-2-yl)-8-ethoxy-[1,2,4]triazolo[1,5-a]pyridin-2-yl)methyl)-2,6-diazaspiro[3.4]octan-7-one]",205
10,"COc1nc(-c2cccc(-c3ccnc(-c4cc5c(OC)nc(CNCCO)nn5c4)c3Cl)c2Cl)ccc1CNC1CCN(C(C)=O)CC1 [Example 661, 1-(4-(((6-(2-Chloro-3-(3-chloro-2-(2-(((2-hydroxyethyl)amino)methyl)-4-methoxypyrrolo[2,1-f][1,2,4]triazin-6-yl)pyridin-4-yl)phenyl)-2-methoxypyridin-3-yl)methyl)amino)piperidin-1-yl)ethan-1-one]",820
11,"COc1cc(-c2nccc(-c3cccc(-c4ccc(CNC[C@@H]5CCC(=O)N5)c(OC)n4)c3Cl)c2Cl)cc(F)c1CNC[C@@H](C)O [Cmpd 81, (S)-5-((((6-(2-chloro-3-(3-chloro-2-(3-fluoro-4-((((R)-2-hydroxypropyl)amino)methyl)-5-methoxyphenyl)pyridin-4-yl)phenyl)-2-methoxypyridin-3-yl)methyl)amino)methyl)pyrrolidin-2-one]",31.4
12,COc1cc(-c2nccc(-c3cccc(-c4ccc(CNC[C@@H]5CCC(=O)N5)c(OC)n4)c3Cl)c2Cl)cc2c1CN(C[C@H]1C[C@H](O)C1)CC2 [Cmpd 133],21.4
13,"COc1cc(-c2nccc(-c3cccc(NC(=O)c4ccc(CNC5CC6(COC6)C5)cn4)c3Cl)c2Cl)ccc1CNC1CC2(COC2)C1 (centres unmarked) [Example 695, 5-(((2-Oxaspiro[3.3]heptan-6-yl)amino)methyl)-N-(3-(2-(4-(((2-oxaspiro[3.3]heptan-6-yl)amino)methyl)-3-methoxyphenyl)-3-chloropyridin-4-yl)-2-chlorophenyl)picolinamide]",169
14,"COc1nc(-c2cccc(-c3ccnc(-c4cc(OC)c5nc(CNCC6(O)CC6)nn5c4)c3Cl)c2Cl)ccc1CNC1CCN(C(C)=O)CC1 [Example 699, 1-(4-(((6-(2-chloro-3-(3-chloro-2-(2-((((1-hydroxycyclopropyl)methyl)amino)methyl)-8-methoxy-[1,2,4]triazolo[1,5-a]pyridin-6-yl)pyridin-4-yl)phenyl)-2-methoxypyridin-3-yl)methyl)amino)piperidin-1-yl)ethan-1-one]",51.5

# The remaining lines, values ahead:
row,EC50 [nM],SMILES
1,71,"COc1cc(-c2nccc(-c3cccc(-c4ccc(CNCCO)c(OC)n4)c3Cl)c2Cl)cc2c1CN(CCCF)CC2 [Cmpd 84, 2-(((6-(2-chloro-3-(3-chloro-2-(2-(3-fluoropropyl)-8-methoxy-1,2,3,4-tetrahydroisoquinolin-6-yl)pyridin-4-yl)phenyl)-2-methoxypyridin-3-yl)methyl)amino)ethan-1-ol]"
2,≥ 10000,"COc1cc(-c2nccc(-c3cccc(-c4ccc(CNC5CCN(c6ccccn6)CC5)c(OC)n4)c3Cl)c2Cl)ccc1CNC1CCN(c2ccccn2)CC1 [Example 444, N-((6-(2-Chloro-3-(3-chloro-2-(3-methoxy-4-(((1-(pyridin-2-yl)piperidin-4-yl)amino)methyl)phenyl)pyridin-4-yl)phenyl)-2-methoxypyridin-3-yl)methyl)-1-(pyridin-2-yl)piperidin-4-amine]"
3,23.5,"COc1cc(-c2nccc(-c3cccc(-c4ccc(CNC5CCN(S(C)(=O)=O)CC5)c(OC)n4)c3Cl)c2Cl)ccc1CNC1CCN(S(C)(=O)=O)CC1 [Example 372, N-((6-(2-Chloro-3-(3-chloro-2-(3-methoxy-4-(((1-(methylsulfonyl)piperidin-4-yl)amino)methyl)phenyl)pyridin-4-yl)phenyl)-2-methoxypyridin-3-yl)methyl)-1-(methylsulfonyl)piperidin-4-amine]"
4,5160,"COc1cc(-c2nccc(-c3cccc(-c4ccc(CN(C)CCO)c(OC)n4)c3Cl)c2Cl)ccc1CN(C)CCO [Cmpd 138, 2-(((6-(2-chloro-3-(3-chloro-2-(4-(((2-hydroxyethyl)(methyl)amino)methyl)-3-methoxyphenyl)pyridin-4-yl)phenyl)-2-methoxypyridin-3-yl)methyl)(methyl)amino)ethan-1-ol]"
5,75.5,"COc1nc(-c2cccc(-c3ccnc(-c4cc(F)c5c(c4)CCN(C[C@@H]4CCC(=O)N4)C5)c3Cl)c2Cl)ccc1CNC[C@@H]1CCC(=O)N1 [Cmpd 61, (S)-5-((((6-(2-chloro-3-(3-chloro-2-(8-fluoro-2-(((S)-5-oxopyrrolidin-2-yl)methyl)-1,2,3,4-tetrahydroisoquinolin-6-yl)pyridin-4-yl)phenyl)-2-methoxypyridin-3-yl)methyl)amino)methyl)pyrrolidin-2-one]"
6,46.3,"COc1cc(-c2nccc(-c3cccc(-c4ccc(CN[C@H]5CC[C@@H](O)CC5)c(OC)n4)c3Cl)c2Cl)ccc1CN[C@H]1CC[C@@H](O)CC1 [Example 410, (1s,4s)-4-(((6-(2-Chloro-3-(3-chloro-2-(4-((((1s,4s)-4-hydroxycyclohexyl)amino)methyl)-3-methoxyphenyl)pyridin-4-yl)phenyl)-2-methoxypyridin-3-yl)methyl)amino)cyclohexan-1-ol]"
7,≥ 10000,"COc1cc(-c2ncnc(-c3cccc(-c4ccc(CN5CC6(CCC(=O)N6)C5)c(OC)n4)c3Cl)c2OC)ccc1CN1CC2(CCC(=O)N2)C1 [Example 743, 2-((6-(2-Chloro-3-(5-methoxy-6-(3-methoxy-4-((6-oxo-2,5-diazaspiro[3.4]octan-2-yl)methyl)phenyl)pyrimidin-4-yl)phenyl)-2-methoxypyridin-3-yl)methyl)-2,5-diazaspiro[3.4]octan-6-one]"
8,361,"COc1cc(-c2nccc(-c3cccc(-c4ccc(CNC[C@@H]5CCC(=O)N5)c(OC)n4)c3Cl)c2Cl)ccc1CN[C@@H](C)C(=O)OC(C)C [Cmpd 125, isopropyl (4-(3-chloro-4-(2-chloro-3-(6-methoxy-5-(((((S)-5-oxopyrrolidin-2-yl)methyl)amino)methyl)pyridin-2-yl)phenyl)pyridin-2-yl)-2-methoxybenzyl)-L-alaninate]"
9,400,"COc1cc(-c2nccc(-c3cccc(-c4ccc(CNC5CCN(C(C)=O)CC5)c(OC)n4)c3C)c2C)ccc1CNC1CCN(C(C)=O)CC1 [Example 363, 1-(4-(((6-(3-(2-(4-(((1-Acetylpiperidin-4-yl)amino)methyl)-3-methoxyphenyl)-3-methylpyridin-4-yl)-2-methylphenyl)-2-methoxypyridin-3-yl)methyl)amino)piperidin-1-yl)ethan-1-one]"
